Experimental data taken from patent US7358390B2, “Polymorphic forms of nateglinide” (Teva Pharmaceutical Industries Ltd., priority 2002, dated 2008).
“Also recorded” adds a separate entry of the source.

Tests used:
[1] = Thermal stability: transformation of crystalline forms on heating or drying, form checked by XRPD; assay type: physicochemical; conditions: for crystal form obtained upon drying/heating: heating under ambient or reduced pressure, generally about 40-80° C.
Procedure: The various crystalline forms are related to each other in that drying of one form may result in a transformation to another form, namely nateglinide Forms A, B, D, E, F, G, H, I, J, K, L, M, N, Q, S, T, V, Z, α, β, δ, γ, ε, θ and Ω. The drying is carried out by heating a sample under ambient or reduced pressure. Generally, a preferred temperature is from about 40° C. to about 80° C., more preferably under reduced pressure. […] The term “stable” as used herein refers to a polymorphic change of less than about 5% by weight, more preferably less than about 2%, particularly for Form δ.
(§1) X-Ray diffraction was performed on X-Ray powder diffractometer, Scintag®, variable goniometer, Cu-tube, solid state detector. Sample holder: A round standard aluminum sample holder with round zero background quartz plate.
(§2) The sample was put on the sample holder and immediately analyzed as is. • Scanning parameters: Range: 2-40 deg 2θ, Continuos Scan, Rate: 3 deg./min. DSC: • DSC821^e Mettler Toledo®, Sample weight: 3-5 mg, Heating rate: 10° C./min, Number of holes in the crucible: 3 TGA: • Mettler TG50®, Sample weight: 7-15 mg, Heating rate: 10° C./min FTIR: • Perkin-Elmer®, Spectrum One FTIR spectrometer, Range: 4000-400 cm−1, no. of scans: 16, resolution: 4.0 cm−1, DRIFT technique.
Nateglinide Form delta (10 grams), with about 3% heptane (wt/wt), was dried in a fluidized bed drier for 4 hours at 60° C. Residual heptane was 1578 ppm af. Ethyl acetate is under detection limit. Polymorphic form of the dry product is delta.
Sample of nateglinide form U (˜1 g) was introduced into a 6-gram vial and heated over 8.5 h in a 100° C. oil bath. The vial were extracted from the bath.
Sample of nateglinide form U (˜0.5 g) was heated to 120° C. for 1 h in an atmospheric pressure.
Sample of nateglinide form δ (˜0.5 g) was heated to 120° C. for 1 h in an atmospheric pressure.
The product of example 11 was dried at 50° C. in a vacuum oven overnight, and analyzed by XRD.
Nateglinide (40 grams) Form delta (1.5% heptane) was dried in a stirred reactor (7-10 rpm) under 60 mmHg vacuum and at 60° C. After 6 hours of drying, the residual solvent of the material was 613 ppm of heptane.

[2] = Storage of crystalline forms at room temperature, form checked by XRPD; assay type: physicochemical; conditions: for crystal form after storage at RT: room temperature and pressure, open bottle, 24 h (about a day)
Procedure: The various crystalline forms are also analyzed by Thermal Gravimetric Analysis (TGA). […] In contrast to the above listed forms, TGA profiles of forms L, P, U, α, δ and σ show no significant weight loss. These polymorphic forms of nateglinide are free of bound solvents, i.e., less than about 2% LOD. Table III lists the solvents used for the preparation for nateglinide solvated forms, as well as LOD values based on TGA analysis.
Storage at room temperature and pressure may also cause a transition of one form to another.
as §1, §2

[3] = Stability at about 40° C. and about 75% relative humidity; assay type: physicochemical; conditions: about 40° C., about 75% relative humidity, at least about 3 months
Procedure: Crystalline Form δ is stable at a temperature of about 40° C. and a relative humidity of about 75% for at least about 3 months.

[4] = second endotherm at 138.2° C. after grinding; cited from earlier work
[5] = Exposure of NTG Form H to solvent vapors; assay type: physicochemical; conditions: 4 d, room temperature
Procedure: Nateglinide (3.50 g) was added to a polypropylene can and weighed. The can was introduced into a bigger polypropylene container containing a solvent, and stored at room temperature. The can was removed from the container and weighed (Wfinal). The can content was divided into 2 portions. One portion was dried at a temperature of 55° C. and a pressure of 20-30 mmHg to constant weight (±0.01 g).

[6] = 120° C., 1 h, atmospheric pressure

In the case of CC(C)[C@H]1CC[C@H](C(=O)N[C@H](Cc2ccccc2)C(=O)O)CC1 [Form ε, nateglinide], the “crystal form obtained upon drying/heating” value [1] is reported as “Form H”.

In the case of CC(C)[C@H]1CC[C@H](C(=O)N[C@H](Cc2ccccc2)C(=O)O)CC1 [acetonitrile solvate of Form Epsilon, nateglinide], the “crystal form obtained upon drying/heating” value [1] is reported as “Form B”.

In the case of CC(C)[C@H]1CC[C@H](C(=O)N[C@H](Cc2ccccc2)C(=O)O)CC1 [Form J, nateglinide], the “XRD pattern after storage at RT” value ([2]; RT, overnight) is reported as “changed after storage at RT” and the “crystal form obtained upon drying/heating” value [1] is reported as “convert to Form B; also recorded: Form B or β”.

For CC(C)[C@H]1CC[C@H](C(=O)N[C@H](Cc2ccccc2)C(=O)O)CC1 [Form U, nateglinide], the “crystal form after heating (XRPD)” value [1, 6] was “Form U”, the “crystal form after heating (XRPD)” value ([1]; about 100° C. oil bath, 8.5 h) was “does not undergo a transition” and the “crystal form after heating (XRPD)” value ([1]; about 100° C. oil bath, 8.5 h, listed as form U) was “Form U”.

With CC(C)[C@H]1CC[C@H](C(=O)N[C@H](Cc2ccccc2)C(=O)O)CC1 [Form θ, nateglinide] the “crystal form obtained upon drying/heating” value [1] was “convert to Form B”.

For CC(C)[C@H]1CC[C@H](C(=O)N[C@H](Cc2ccccc2)C(=O)O)CC1 [Form M, nateglinide], the “crystal form obtained upon drying/heating” value [1] was “Form L”.

In the case of CC(C)[C@H]1CC[C@H](C(=O)N[C@H](Cc2ccccc2)C(=O)O)CC1 [Form δ, nateglinide], the stability when heated ([1]; 60° C. overnight (at least about 8 hours)) is reported as “stable”, the “crystal form after heating (XRPD)” value [1, 6] is reported as “Form B” and the “crystal form after heating (XRPD)” value ([1]; 120° C., 1 h, atmospheric pressure, listed as form δ) is reported as “Form B”. For the same molecule, the “polymorphic form after drying” value ([1]; fluidized bed drier, 4 hours, 60° C.) was “delta”, the “crystal form obtained upon drying/heating” value [1] was “convert to Form B” and the polymorph after drying ([1]; stirred reactor (7-10 rpm), 60 mmHg vacuum, 60° C., 6 hours) was “remained delta form”. The stability on storage [3] was “stable”.

With CC(C)[C@H]1CC[C@H](C(=O)N[C@H](Cc2ccccc2)C(=O)O)CC1 [Form F, nateglinide] the “crystal form obtained upon drying/heating” value [1] was “convert to Form B; also recorded: a mixture of Form B and G”.

In the case of CC(C)[C@H]1CC[C@H](C(=O)N[C@H](Cc2ccccc2)C(=O)O)CC1 [Form N, nateglinide], the “crystal form obtained upon drying/heating” value [1] is reported as “Form L”.

For CC(C)[C@H]1CC[C@H](C(=O)N[C@H](Cc2ccccc2)C(=O)O)CC1 [Form B, nateglinide], the “stability during grinding (DSC)” value [4] is given as “unstable and susceptible to change”.

For CC(C)[C@H]1CC[C@H](C(=O)N[C@H](Cc2ccccc2)C(=O)O)CC1 [Form A, nateglinide], the “crystal form after storage at RT” value [2] was “partially converts to Form B”, the “crystal form after storage at RT” value ([2]; listed as A) was “conversion to Form B” and the “crystal form obtained upon drying/heating” value [1] was “convert to Form B”.

With CC(C)[C@H]1CC[C@H](C(=O)N[C@H](Cc2ccccc2)C(=O)O)CC1 [Form C, nateglinide] the “crystal form obtained upon drying/heating” value [1] was “convert to Form B; also recorded: Form B or α”.

With CC(C)[C@H]1CC[C@H](C(=O)N[C@H](Cc2ccccc2)C(=O)O)CC1 [Form T, nateglinide] the “crystal form after storage at RT” value [2] was “converts to Form E”, the “crystal form after storage at RT” value ([2]; listed as T) was “Form E” and the “crystal form obtained upon drying/heating” value [1] was “convert to Form B; also recorded: a mixture of Form B and G”.

For CC(C)[C@H]1CC[C@H](C(=O)N[C@H](Cc2ccccc2)C(=O)O)CC1 [Form H, nateglinide], the “Form wet after exposure to solvent vapors” value ([5]; Acetone vapors) was “stable” and the “Form wet after exposure to solvent vapors” value ([5]; Water vapors) was “stable”.

In the case of CC(C)[C@H]1CC[C@H](C(=O)N[C@H](Cc2ccccc2)C(=O)O)CC1 [Form Q, nateglinide], the “crystal form after storage at RT” value [2] is reported as “converts to Form Y”, the “crystal form after storage at RT” value ([2]; listed as Q) is reported as “Form Y, which contains” and the “crystal form obtained upon drying/heating” value [1] is reported as “convert to Form B”.

In the case of CC(C)[C@H]1CC[C@H](C(=O)N[C@H](Cc2ccccc2)C(=O)O)CC1 [Form G, nateglinide], the “crystal form obtained upon drying/heating” value [1] is reported as “convert to Form B”.

With CC(C)[C@H]1CC[C@H](C(=O)N[C@H](Cc2ccccc2)C(=O)O)CC1 [Form Ω, nateglinide] the “crystal form after drying (XRD)” value ([1]; 50° C., vacuum oven, overnight) was “mixture of Form omega and Form Z” and the “crystal form obtained upon drying/heating” value [1] was “convert to Form B”.

With CC(C)[C@H]1CC[C@H](C(=O)N[C@H](Cc2ccccc2)C(=O)O)CC1 [Form Z, nateglinide] the “crystal form obtained upon drying/heating” value [1] was “convert to Form B”.

For CC(C)[C@H]1CC[C@H](C(=O)N[C@H](Cc2ccccc2)C(=O)O)CC1 [Form V, nateglinide], the “crystal form obtained upon drying/heating” value [1] was “Form H”.

In the case of CC(C)[C@H]1CC[C@H](C(=O)N[C@H](Cc2ccccc2)C(=O)O)CC1 [nitromethane solvates of Form Epsilon, nateglinide], the “crystal form obtained upon drying/heating” value [1] is reported as “Forms H or P”.

For CC(C)[C@H]1CC[C@H](C(=O)N[C@H](Cc2ccccc2)C(=O)O)CC1 [Form β, nateglinide], the “crystal form obtained upon drying/heating” value [1] was “convert to Form B”.

In the case of CC(C)[C@H]1CC[C@H](C(=O)N[C@H](Cc2ccccc2)C(=O)O)CC1 [Form I, nateglinide], the “crystal form after storage at RT” value [2] is reported as “converts to Form L” and the “crystal form after storage at RT” value ([2]; listed as I) is reported as “Form L”.

With CC(C)[C@H]1CC[C@H](C(=O)N[C@H](Cc2ccccc2)C(=O)O)CC1 [Form E, nateglinide] the “crystal form obtained upon drying/heating” value [1] was “convert to Form B”.
